{"source": "paper PMC5218480", "about": "(PLoS ONE, 2017)", "test_system": "MV-4-11 cells", "test": "Gene expression microarray analysis (Affymetrix PrimeView) and GSEA", "assay_type": "cell-based, human", "parameters": "RFU PODN (11730768_x_at) / Fold change /veh PODN (11730768_x_at) / RFU LINC00158 (11744669_a_at) / Fold change /veh LINC00158 (11744669_a_at) / RFU DUSP10 (11751237_a_at) / Fold change /veh DUSP10 (11751237_a_at) / RFU ID3 (11757404_x_at) / Fold change /veh ID3 (11757404_x_at) / RFU PLEKHG5 (11737974_s_at) / Fold change /veh PLEKHG5 (11737974_s_at) / RFU LRRC4B (11730491_at) / Fold change /veh LRRC4B (11730491_at) / RFU GIMAP4 (11747438_a_at) / Fold change /veh GIMAP4 (11747438_a_at) / RFU KRT8 (11758183_x_at) / Fold change /veh KRT8 (11758183_x_at) / RFU CNN1 (11734310_a_at) / Fold change /veh CNN1 (11734310_a_at) / RFU VPS37D (11726825_at) / Fold change /veh VPS37D (11726825_at) / RFU C10orf10 (11716522_x_at) / Fold change /veh C10orf10 (11716522_x_at) / RFU KIR2DL2 /// KIR2DL4 /// KIR2DL5A /// KIR2DL5B /// KIR2DS1 /// KIR2DS2 /// KIR2DS3 /// KIR2DS4 /// KIR3DL3 /// KIR3DL3 /// KIR3DS1 (11738374_at) / Fold change /veh KIR2DL2 /// KIR2DL4 /// KIR2DL5A /// KIR2DL5B /// KIR2DS1 /// KIR2DS2 /// KIR2DS3 /// KIR2DS4 /// KIR3DL3 /// KIR3DL3 /// KIR3DS1 (11738374_at) / RFU C1QL1 (11718748_at) / Fold change /veh C1QL1 (11718748_at) / RFU TMPRSS4 (11747572_a_at) / Fold change /veh TMPRSS4 (11747572_a_at) / RFU HAMP (11756126_x_at) / Fold change /veh HAMP (11756126_x_at) / RFU RNFT2 (11725882_a_at) / Fold change /veh RNFT2 (11725882_a_at) / RFU NR4A2 (11747474_a_at) / Fold change /veh NR4A2 (11747474_a_at) / RFU ABCC12 (11746883_a_at) / Fold change /veh ABCC12 (11746883_a_at) / RFU TMEM136 (11760407_x_at) / Fold change /veh TMEM136 (11760407_x_at) / RFU CLDN22 /// WWC2 (11732394_at) / Fold change /veh CLDN22 /// WWC2 (11732394_at) / RFU HLA-DPB1 (11760878_x_at) / Fold change /veh HLA-DPB1 (11760878_x_at) / RFU SPINT1 (11716480_a_at) / Fold change /veh SPINT1 (11716480_a_at) / RFU GAP43 (11754022_s_at) / Fold change /veh GAP43 (11754022_s_at) / RFU A4GNT (11735810_at) / Fold change /veh A4GNT (11735810_at) / RFU PRB3 (11715151_x_at) / Fold change /veh PRB3 (11715151_x_at) / RFU TUBB4B (11761932_at) / Fold change /veh TUBB4B (11761932_at) / RFU CAPN14 (11732068_a_at) / Fold change /veh CAPN14 (11732068_a_at) / RFU TMCC2 (11721928_a_at) / Fold change /veh TMCC2 (11721928_a_at) / RFU IRGQ (11745062_a_at) / Fold change /veh IRGQ (11745062_a_at) / RFU FAM174B (11720279_a_at) / Fold change /veh FAM174B (11720279_a_at) / RFU TMPRSS4 (11748680_a_at) / Fold change /veh TMPRSS4 (11748680_a_at) / RFU FAM212B (11763350_a_at) / Fold change /veh FAM212B (11763350_a_at) / RFU PLEKHG5 (11743358_a_at) / Fold change /veh PLEKHG5 (11743358_a_at) / RFU ZSCAN30 (11745921_a_at) / Fold change /veh ZSCAN30 (11745921_a_at) / RFU CMKLR1 (11741424_a_at) / Fold change /veh CMKLR1 (11741424_a_at) / RFU LOC101060620 /// MAPK8IP1 (11723275_at) / Fold change /veh LOC101060620 /// MAPK8IP1 (11723275_at) / RFU SPTSSB (11747773_x_at) / Fold change /veh SPTSSB (11747773_x_at) / RFU PRSS12 (11739890_at) / Fold change /veh PRSS12 (11739890_at) / RFU BIN1 (11741810_x_at) / Fold change /veh BIN1 (11741810_x_at) / RFU WNT11 (11732464_a_at) / Fold change /veh WNT11 (11732464_a_at) / RFU C10orf10 (11716521_a_at) / Fold change /veh C10orf10 (11716521_a_at) / RFU C5orf56 (11738089_at) / Fold change /veh C5orf56 (11738089_at) / RFU CYB561 (11721691_x_at) / Fold change /veh CYB561 (11721691_x_at) / RFU ANKRD19P (11752326_a_at) / Fold change /veh ANKRD19P (11752326_a_at) / RFU OR2T12 /// OR2T33 /// OR2T8 (11738714_s_at) / Fold change /veh OR2T12 /// OR2T33 /// OR2T8 (11738714_s_at) / RFU VCAN (11748164_a_at) / Fold change /veh VCAN (11748164_a_at) / RFU JSRP1 (11732532_at) / Fold change /veh JSRP1 (11732532_at) / RFU KRTAP10-11 (11738290_x_at) / Fold change /veh KRTAP10-11 (11738290_x_at) / RFU MYO3A (11730013_a_at) / Fold change /veh MYO3A (11730013_a_at) / RFU EBF3 (11725865_a_at) / Fold change /veh EBF3 (11725865_a_at) / RFU CAMK2N1 (11719241_x_at) / Fold change /veh CAMK2N1 (11719241_x_at) / RFU C5orf56 (11738088_a_at) / Fold change /veh C5orf56 (11738088_a_at) / RFU OLFML3 (11715873_a_at) / Fold change /veh OLFML3 (11715873_a_at) / RFU LOC100653217 /// NTM (11731650_a_at) / Fold change /veh LOC100653217 /// NTM (11731650_a_at) / RFU MAPK11 (11762145_a_at) / Fold change /veh MAPK11 (11762145_a_at) / RFU FIZ1 (11724087_x_at) / Fold change /veh FIZ1 (11724087_x_at) / RFU OASL (11726364_x_at) / Fold change /veh OASL (11726364_x_at) / RFU SOX15 (11748057_x_at) / Fold change /veh SOX15 (11748057_x_at) / RFU CD79A (11719716_a_at) / Fold change /veh CD79A (11719716_a_at) / RFU HIST1H1D (11736915_at) / Fold change /veh HIST1H1D (11736915_at) / RFU CASKIN2 (11723855_a_at) / Fold change /veh CASKIN2 (11723855_a_at) / RFU LOC730098 (11760151_x_at) / Fold change /veh LOC730098 (11760151_x_at) / RFU OR4N2 (11742367_at) / Fold change /veh OR4N2 (11742367_at) / RFU PRRT2 (11749266_a_at) / Fold change /veh PRRT2 (11749266_a_at) / RFU SNX32 (11753110_a_at) / Fold change /veh SNX32 (11753110_a_at) / RFU CDHR5 (11726645_a_at) / Fold change /veh CDHR5 (11726645_a_at) / RFU RCAN1 (11760418_a_at) / Fold change /veh RCAN1 (11760418_a_at) / RFU FAM167A (11723789_a_at) / Fold change /veh FAM167A (11723789_a_at) / RFU FAM26E (11764081_at) / Fold change /veh FAM26E (11764081_at) / RFU ISYNA1 (11749810_s_at) / Fold change /veh ISYNA1 (11749810_s_at) / RFU ACY1 (11761880_at) / Fold change /veh ACY1 (11761880_at) / RFU 11764098_at / Fold change /veh 11764098_at / RFU SAMD14 (11745864_x_at) / Fold change /veh SAMD14 (11745864_x_at) / RFU NPB (11741838_a_at) / Fold change /veh NPB (11741838_a_at) / RFU TMPRSS6 (11731388_a_at) / Fold change /veh TMPRSS6 (11731388_a_at) / RFU KRTAP10-2 (11738614_at) / Fold change /veh KRTAP10-2 (11738614_at) / RFU ARHGAP8 /// PRR5-ARHGAP8 (11727945_x_at) / Fold change /veh ARHGAP8 /// PRR5-ARHGAP8 (11727945_x_at) / RFU KRTAP5-7 /// NADSYN1 (11734609_at) / Fold change /veh KRTAP5-7 /// NADSYN1 (11734609_at) / RFU RASL12 (11751679_a_at) / Fold change /veh RASL12 (11751679_a_at) / RFU CDKN2B (11736163_a_at) / Fold change /veh CDKN2B (11736163_a_at) / RFU PRF1 (11729649_at) / Fold change /veh PRF1 (11729649_at) / RFU, ZNF638 /// ZNF638-IT1 / Fold change vs veh, ZNF638 /// ZNF638-IT1 / RFU, PANK3 / Fold change vs veh, PANK3 / RFU, SH3YL1 / Fold change vs veh, SH3YL1 / RFU, ZEB2 / Fold change vs veh, ZEB2 / RFU, NRIP1 / Fold change vs veh, NRIP1 / RFU, PTTG1IP / Fold change vs veh, PTTG1IP / RFU, CAPN2 / Fold change vs veh, CAPN2 / RFU, MED14 / Fold change vs veh, MED14 / RFU, SNORA58 / Fold change vs veh, SNORA58 / RFU, C1orf63 / Fold change vs veh, C1orf63 / RFU, LRRFIP1 / Fold change vs veh, LRRFIP1 / RFU, NDUFAF7 / Fold change vs veh, NDUFAF7 / RFU, SLC12A2 / Fold change vs veh, SLC12A2 / RFU, IBTK / Fold change vs veh, IBTK / RFU, ESF1 / Fold change vs veh, ESF1 / Fold change vs veh, TMEM50B / RFU, TAOK1 / Fold change vs veh, TAOK1 / RFU, ACBD3 / Fold change vs veh, ACBD3 / RFU, TMA16 / Fold change vs veh, TMA16 / RFU, RWDD3 / Fold change vs veh, RWDD3 / RFU, BCAT1 / Fold change vs veh, BCAT1 / RFU, EDEM3 / Fold change vs veh, EDEM3 / RFU, TMEM33 / Fold change vs veh, TMEM33 / RFU, WDR75 / Fold change vs veh, WDR75 / RFU, AHCTF1 / Fold change vs veh, AHCTF1 / RFU, TFRC / Fold change vs veh, TFRC / RFU, ZDHHC17 / Fold change vs veh, ZDHHC17 / RFU, NOM1 / Fold change vs veh, NOM1 / RFU, ARL8B / Fold change vs veh, ARL8B / RFU, ZBTB11 / Fold change vs veh, ZBTB11 / RFU, TAMM41 / Fold change vs veh, TAMM41 / RFU, KIAA1704 /// LOC100996395 / Fold change vs veh, KIAA1704 /// LOC100996395 / RFU, ING1 / Fold change vs veh, ING1 / RFU, TRMT61B / Fold change vs veh, TRMT61B / RFU, FUBP3 / Fold change vs veh, FUBP3 / RFU, TP53 / Fold change vs veh, TP53 / RFU, TNKS2 / Fold change vs veh, TNKS2 / RFU, ZFP14 / Fold change vs veh, ZFP14 / RFU, ACTR2 / Fold change vs veh, ACTR2 / RFU, PPP3R1 / Fold change vs veh, PPP3R1 / RFU, PIK3R1 / Fold change vs veh, PIK3R1 / RFU, HNRNPA1 / Fold change vs veh, HNRNPA1 / RFU, RNF170 / Fold change vs veh, RNF170 / RFU, ZNF28 / Fold change vs veh, ZNF28 / RFU, RNGTT / Fold change vs veh, RNGTT / RFU, OGT / Fold change vs veh, OGT / RFU, BRD1 / Fold change vs veh, BRD1 / RFU, MARS / Fold change vs veh, MARS / RFU, ZNF655 / Fold change vs veh, ZNF655 / RFU, FAHD1 / Fold change vs veh, FAHD1 / RFU, BDP1 / Fold change vs veh, BDP1 / RFU, LRRCC1 / Fold change vs veh, LRRCC1 / RFU, ARID1A / Fold change vs veh, ARID1A / RFU, ZNF146 / Fold change vs veh, ZNF146 / RFU, ZNF330 / Fold change vs veh, ZNF330 / RFU, GPN3 / Fold change vs veh, GPN3 / RFU, C9orf123 / Fold change vs veh, C9orf123 / RFU, N4BP2L2 / Fold change vs veh, N4BP2L2 / RFU, ARFIP1 / Fold change vs veh, ARFIP1 / RFU, FAM179B / Fold change vs veh, FAM179B / RFU, BCL10 / Fold change vs veh, BCL10 / RFU, UHRF1BP1L / Fold change vs veh, UHRF1BP1L / RFU, BET1 / Fold change vs veh, BET1 / RFU, CNOT2 / Fold change vs veh, CNOT2 / RFU, ZNF268 / Fold change vs veh, ZNF268 / Fold change vs veh, ZNF507 / RFU, DGCR2 / Fold change vs veh, DGCR2 / RFU, WDSUB1 / Fold change vs veh, WDSUB1 / Fold change vs veh, HSP90B1 /// MIR3652 / RFU, ADSS / Fold change vs veh, ADSS / RFU, GK / Fold change vs veh, GK / RFU, ZNF148 / Fold change vs veh, ZNF148 / RFU, TAF9 / Fold change vs veh, TAF9 / RFU, SLC1A5 / Fold change vs veh, SLC1A5 / RFU, SLMO2 / Fold change vs veh, SLMO2 / RFU, ABCC4 / Fold change vs veh, ABCC4 / RFU, LOC101060439 /// RAP1B / Fold change vs veh, LOC101060439 /// RAP1B / RFU, RFX7 / Fold change vs veh, RFX7 / RFU, GTPBP10 / Fold change vs veh, GTPBP10 / RFU, CNEP1R1 / Fold change vs veh, CNEP1R1 / RFU, BIVM-ERCC5 /// ERCC5 / Fold change vs veh, BIVM-ERCC5 /// ERCC5 / RFU, ILF3 / Fold change vs veh, ILF3 / RFU 11762660_at / Fold change /veh 11762660_at / RFU VCAN (11757783_s_at) / Fold change /veh VCAN (11757783_s_at) / RFU DDX43 (11728927_at) / Fold change /veh DDX43 (11728927_at) / RFU KRT8 (11758188_x_at) / Fold change /veh KRT8 (11758188_x_at) / RFU NKD1 (11759106_at) / Fold change /veh NKD1 (11759106_at) / RFU SRD5A1 (11742802_a_at) / Fold change /veh SRD5A1 (11742802_a_at) / RFU TPSAB1 /// TPSB2 (11721975_s_at) / Fold change /veh TPSAB1 /// TPSB2 (11721975_s_at) / RFU GSTM3 (11746129_a_at) / Fold change /veh GSTM3 (11746129_a_at) / RFU IL23R (11737362_x_at) / Fold change /veh IL23R (11737362_x_at) / RFU TMEM51 (11727254_a_at) / Fold change /veh TMEM51 (11727254_a_at) / RFU PIWIL2 (11732686_x_at) / Fold change /veh PIWIL2 (11732686_x_at) / RFU ORM1 (11744905_x_at) / Fold change /veh ORM1 (11744905_x_at) / RFU CCDC152 (11743942_at) / Fold change /veh CCDC152 (11743942_at) / RFU ECM1 (11717891_a_at) / Fold change /veh ECM1 (11717891_a_at) / RFU IL23R (11748794_a_at) / Fold change /veh IL23R (11748794_a_at) / RFU TNFAIP8L3 (11732012_x_at) / Fold change /veh TNFAIP8L3 (11732012_x_at) / RFU MBOAT4 (11741988_at) / Fold change /veh MBOAT4 (11741988_at) / RFU 11764193_at / Fold change /veh 11764193_at / RFU TMEM53 (11763286_at) / Fold change /veh TMEM53 (11763286_at) / RFU MAGEB2 (11727129_at) / Fold change /veh MAGEB2 (11727129_at) / RFU TMEM200A (11744735_a_at) / Fold change /veh TMEM200A (11744735_a_at) / RFU CCDC152 (11751479_a_at) / Fold change /veh CCDC152 (11751479_a_at) / RFU FAM211A (11726209_a_at) / Fold change /veh FAM211A (11726209_a_at) / RFU RGS16 (11746705_a_at) / Fold change /veh RGS16 (11746705_a_at) / RFU VCAN (11755009_s_at) / Fold change /veh VCAN (11755009_s_at) / RFU RHOB (11743442_s_at) / Fold change /veh RHOB (11743442_s_at) / RFU RGS16 (11720943_a_at) / Fold change /veh RGS16 (11720943_a_at) / RFU RGS16 (11720944_at) / Fold change /veh RGS16 (11720944_at) / RFU, VPS4B / Fold change vs veh, VPS4B / RFU, CREB1 / Fold change vs veh, CREB1 / RFU, DNAJC13 / Fold change vs veh, DNAJC13 / RFU, GNAQ / Fold change vs veh, GNAQ / RFU, CDK5R1 / Fold change vs veh, CDK5R1 / RFU, ZRANB3 / Fold change vs veh, ZRANB3 / RFU, CUL4A / Fold change vs veh, CUL4A / RFU, CCNY / Fold change vs veh, CCNY / RFU, UFL1 / Fold change vs veh, UFL1 / RFU, COG3 / Fold change vs veh, COG3 / RFU, DIAPH2 / Fold change vs veh, DIAPH2 / RFU, SKA2 / Fold change vs veh, SKA2 / RFU, AFF3 / Fold change vs veh, AFF3 / RFU, LMF1 / Fold change vs veh, LMF1 / RFU, IPO11 / Fold change vs veh, IPO11 / RFU, DFFB / Fold change vs veh, DFFB / RFU, FOXP1 / Fold change vs veh, FOXP1 / RFU, CARD8 / Fold change vs veh, CARD8 / RFU, STRN3 / Fold change vs veh, STRN3 / RFU, ADK / Fold change vs veh, ADK / RFU, RASSF2 / Fold change vs veh, RASSF2 / RFU, WIPF1 / Fold change vs veh, WIPF1 / RFU, LARP1B / Fold change vs veh, LARP1B / RFU, RASA1 / Fold change vs veh, RASA1 / RFU, RB1 / Fold change vs veh, RB1 / RFU, PPFIA1 / Fold change vs veh, PPFIA1 / RFU, MAT2A / Fold change vs veh, MAT2A / RFU, CCT5 / Fold change vs veh, CCT5 / RFU, WDR92 / Fold change vs veh, WDR92 / RFU, CUX1 / Fold change vs veh, CUX1 / RFU, TTC7A / Fold change vs veh, TTC7A / RFU, TMEM135 / Fold change vs veh, TMEM135 / RFU, DEPTOR / Fold change vs veh, DEPTOR / RFU, CPM / Fold change vs veh, CPM / RFU, DNAJB6 / Fold change vs veh, DNAJB6 / RFU, CACNA2D3 / Fold change vs veh, CACNA2D3 / RFU, DTX4 / Fold change vs veh, DTX4 / RFU, TFCP2 / Fold change vs veh, TFCP2 / RFU, GMCL1 /// GMCL1P1 / Fold change vs veh, GMCL1 /// GMCL1P1 / RFU, AEBP2 / Fold change vs veh, AEBP2 / RFU, SNHG1 /// SNORD22 /// SNORD25 /// SNORD26 /// SNORD27 /// SNORD28 /// SNORD29 /// SNORD31 / Fold change vs veh, SNHG1 /// SNORD22 /// SNORD25 /// SNORD26 /// SNORD27 /// SNORD28 /// SNORD29 /// SNORD31 / Fold change (Aza/veh), C12orf56 (ProbeSet 11735607_a_at) / Fold change (ACY-1035/veh), C12orf56 (ProbeSet 11735607_a_at) / Fold change (Aza/veh), FGFR1OP (ProbeSet 11751329_s_at) / Fold change (ACY-1035/veh), FGFR1OP (ProbeSet 11751329_s_at) / Fold change (Aza/veh), VPS36 (ProbeSet 11739960_a_at) / Fold change (ACY-1035/veh), VPS36 (ProbeSet 11739960_a_at) / RFU SYPL1 (11715823_x_at) / Fold change /veh SYPL1 (11715823_x_at) / RFU IGFBP7 (11715501_s_at) / Fold change /veh IGFBP7 (11715501_s_at) / RFU REEP3 (11722064_at) / Fold change /veh REEP3 (11722064_at) / RFU IGLL1 (11728026_x_at) / Fold change /veh IGLL1 (11728026_x_at): dose or concentration left out as unconfirmed", "details": "ProbeSet 11764057_s_at; LIST B", "data": [{"smiles": "Nc1ccc(-c2cccs2)cc1NC(=O)c1ccc2c(c1)cc(C1CC1)n2CCN1CCOCC1", "note": "[ACY-1035]", "values": [{"measurement": "RFU, C1orf63", "result": 108.16, "unit": "RFU"}]}]}
